In patent US6780994B2, “Phthalimido arylpiperazines useful in the treatment of benign prostatic hyperplasia” (Ortho-McNeil Pharmaceutical, Inc., priority 1998, dated 2004):

Columns and labels:
α1d-AR = target: T1, α1d-AR (Homo sapiens, UniProt P25100); test: radioligand ([125I]-HEAT) receptor binding assay, COS cell membranes expressing cloned receptor; conditions: [125I]-HEAT 50 pM, 1 hour room temperature
T1 construct: expressed in transfected cells; host or cells: COS cells, pcDNA3 vector, transient DEAE-dextran transfection
T1 sequence (P25100 1-572): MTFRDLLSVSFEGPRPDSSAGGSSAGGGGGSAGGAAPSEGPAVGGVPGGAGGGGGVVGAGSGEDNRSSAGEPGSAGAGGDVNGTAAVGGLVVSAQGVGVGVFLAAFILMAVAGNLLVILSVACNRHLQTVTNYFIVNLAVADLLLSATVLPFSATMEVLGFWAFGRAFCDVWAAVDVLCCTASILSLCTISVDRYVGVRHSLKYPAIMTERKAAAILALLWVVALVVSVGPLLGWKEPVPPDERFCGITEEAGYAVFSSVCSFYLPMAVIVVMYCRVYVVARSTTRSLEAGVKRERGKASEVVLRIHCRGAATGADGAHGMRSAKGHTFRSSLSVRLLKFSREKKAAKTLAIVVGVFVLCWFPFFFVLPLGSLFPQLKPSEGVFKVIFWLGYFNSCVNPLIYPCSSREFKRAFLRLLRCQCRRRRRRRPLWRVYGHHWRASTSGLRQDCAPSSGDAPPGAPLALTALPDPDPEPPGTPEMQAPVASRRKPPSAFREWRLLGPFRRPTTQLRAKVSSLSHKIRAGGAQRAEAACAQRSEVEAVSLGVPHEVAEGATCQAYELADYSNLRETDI
Text: (§1) The first assay tested the ability of compounds of Formula I to bind to membrane bound receptors α1a-AR, α1b-AR and α1d-AR.
(§2) The DNA sequences of the three cloned human α1-AR subtypes have been published. […] We used published DNA sequence information to design primers for use in RT-PCR amplification of each subtype to obtain cloned cDNAs. Human poly A+ RNA was obtained from commercially available sources and included hippocampus and prostate samples, sources which have been cited in the literature. For the primary screen a radioligand binding assay was used which employed membrane preparations from cells expressing the individual cloned receptor cDNAs. Radiolabeled ligands with binding activity on all three subtypes (non-selective) are commercially available ([125I]-HEAT, [3H]-prazosin). Each α1 receptor subtype was cloned from poly A+ RNA by the standard method of reverse transcription-polymerase chain reaction (RT-PCR). The following sources of polyA+ RNA were used for the cloning of the α1 receptor subtypes: α1a-AR, human hippocampus and prostate, α1b-AR, human hippocampus, α1d-AR, human hippocampus. The resulting cDNAs were cloned into the pcDNA3 mammalian expression vector (Invitrogen Corp., San Diego Calif.). Each DNA was sequenced for verification and to detect any possible mutations introduced during the amplification process. Any deviation in sequence from the published consensus for each receptor subtype was corrected by site-directed mutagenesis.
(§3) The three α1-AR subtypes (a, b, d) were transfected into COS cells using a standard DEAE-dextran procedure with a chloroquine shock. In this procedure, each tissue culture dish (100 mm) was inoculated with 3.5×10^6 cells and transfected with 10 μg of DNA. Approximately 72 hours post-transfection, the cells were harvested and COS membranes were prepared. Transfected COS cells from 25 plates (100 mm) were scraped and suspended in 15 mL of TE buffer (50 mM Tris-HCl, 5 mM EDTA, pH 7.4). The suspension was disrupted with a homogenizer. It was then centrifuged at 1000× g for 10 minutes at 4° C. The supernatant was centrifuged at 34,500× g for 20 minutes at 4° C. The pellet was resuspended in 5 mL TNE buffer (50 mM Tris-HCl, 5 mM EDTA, 150 mM NaCl, pH 7.4). The resulting membrane preparation was aliquoted and stored at −70° C. The protein concentration was determined following membrane solubilization with TritonX-100.
(§4) The ability of each compound to bind to each of the α1-AR subtypes was assessed in a receptor binding assay. [125I]-HEAT, a non-selective α1-AR ligand, was used as the radiolabeled ligand. Each well of a 96-well plate received: 140 μL TNE, […] [125I]-HEAT diluted in TNE (50,000 cpm; final concentration 50 pM), 10 μL test compound diluted in DMSO (final concentration 1 pM-10 μM), […] COS cell membrane preparation expressing one of the three α1-AR subtypes (0.05-0.2 mg membrane protein). The plate was incubated for 1 hour at room temperature and the reaction mixtures were filtered through a Packard GF/C Unifilter filter plate. The filter plate was dried for 1 hour in a vacuum oven. Scintillation fluid ([…]) was added to each well, and the filter plate was counted in a Packard Topcount scintillation counter. Data was analyzed using GraphPad Prism software.
(§5) Tables A through D list the IC50 values expressed in nanomolar concentration for select compounds of the invention in all receptor subtypes.

α1b-AR = target: T2, α1b-AR (Homo sapiens, UniProt P35368); test: as above; conditions: [125I]-HEAT 50 pM, 1 hour room temperature
T2 construct: expressed in transfected cells; host or cells: COS cells, pcDNA3 vector, transient DEAE-dextran transfection
T2 sequence (P35368 1-520): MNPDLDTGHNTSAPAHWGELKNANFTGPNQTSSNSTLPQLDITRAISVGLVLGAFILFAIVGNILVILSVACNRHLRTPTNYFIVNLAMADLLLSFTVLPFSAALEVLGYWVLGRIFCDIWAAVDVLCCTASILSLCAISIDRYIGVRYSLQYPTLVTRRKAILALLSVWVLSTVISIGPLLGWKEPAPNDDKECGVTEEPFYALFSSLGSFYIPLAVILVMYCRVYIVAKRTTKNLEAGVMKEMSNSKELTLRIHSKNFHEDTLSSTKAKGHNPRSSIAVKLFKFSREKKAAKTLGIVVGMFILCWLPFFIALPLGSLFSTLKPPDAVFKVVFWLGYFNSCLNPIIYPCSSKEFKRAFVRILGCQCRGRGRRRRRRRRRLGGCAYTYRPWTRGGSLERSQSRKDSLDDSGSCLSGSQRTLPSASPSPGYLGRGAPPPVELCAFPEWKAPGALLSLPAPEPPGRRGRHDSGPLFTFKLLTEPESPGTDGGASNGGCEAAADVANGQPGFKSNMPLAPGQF
Text: as §1, §2, §3, §4, §5

SMILES | IC50 (α1d-AR) | IC50 (α1b-AR)
CC(C)Oc1ccccc1N1CCN(CC(O)CNC(=O)c2ccc3c(c2)C(=O)N(c2cccc(F)c2)C3=O)CC1 (racemic) [Compound 4] | 76 nM | 1830 nM
CC(C)Oc1ccccc1N1CCN(CC(O)CNC(=O)c2ccc3c(c2)C(=O)N(c2ccc(O)cc2)C3=O)CC1 (single isomer, unassigned) [Compound 35] | 137 nM | > 2000 nM
CC(C)Oc1ccccc1N1CCN(C[C@@H](O)CNC(=O)c2ccc3c(c2)C(=O)N(c2ccc(N(C)C)cc2)C3=O)CC1 [Compound 21, (S)-2-[4-(dimethylamino)phenyl]-2,3-dihydro-N-[2-hydroxy-3-[4-[2-(1-methylethoxy)phenyl]-1-piperazinyl]propyl]-1,3-dioxo-1H-isoindole-5-carboxamide] | 52 nM | > 2000 nM
COc1ccccc1N1C(=O)c2ccc(C(=O)NCC(O)CN3CCN(c4ccccc4OC(C)C)CC3)cc2C1=O (centres unmarked) [Compound 26] | 74 nM | 1640 nM
CC(C)Oc1ccccc1N1CCN(C[C@H](O)CNC(=O)c2ccc3c(c2)C(=O)N(c2cccc(F)c2)C3=O)CC1 [Compound 27] | 63 nM | > 2000 nM
CC(C)Oc1ccccc1N1CCN(CC(O)CNC(=O)c2ccc3c(c2)C(=O)N(c2cc(F)cc(F)c2)C3=O)CC1 (centres unmarked) [Compound 29] | 38 nM | 886 nM
COc1ccc(N2C(=O)c3ccc(C(=O)NCC(O)CN4CCN(c5ccccc5OC(C)C)CC4)cc3C2=O)cc1OC (centres unmarked) [Compound 38] | 175 nM | > 2000 nM
Cc1ccc(N2C(=O)c3ccc(C(=O)NCC(O)CN4CCN(c5ccccc5OC(C)C)CC4)cc3C2=O)cc1C (centres unmarked) [Compound 39] | 73 nM | > 2000 nM
CC(C)Oc1ccccc1N1CCN(CC(O)CNC(=O)c2ccc3c(c2)C(=O)N(c2ccc(C(C)(C)C)cc2)C3=O)CC1 (centres unmarked) [Compound 41] | 75 nM | > 2000 nM
CCOc1ccccc1N1CCN(CC(O)CNC(=O)c2ccc3c(c2)C(=O)N(c2cccc(F)c2)C3=O)CC1 (centres unmarked) [Compound 42] | 136 nM | > 2000 nM
COc1ccccc1N1CCN(CC(O)CNC(=O)c2ccc3c(c2)C(=O)N(c2cccc(F)c2)C3=O)CC1 (centres unmarked) [Compound 43] | 540 nM | > 2000 nM
CC(C)Oc1ccccc1N1CCN(CCCNC(=O)c2ccc3c(c2)C(=O)N(c2ccc(N(C)C)cc2)C3=O)CC1 [Compound 44] | 15 nM | 465 nM
CC(C)Oc1ccccc1N1CCN(CC(O)CNC(=O)c2ccc3c(c2)C(=O)N(c2ccccc2)C3=O)CC1 (centres unmarked) [Compound 51] | 65 nM | > 2000 nM
CC(C)Oc1ccccc1N1CCN(CC(O)CNC(=O)c2ccc3c(c2)C(=O)N(c2ccc(Cl)cc2)C3=O)CC1 (centres unmarked) [Compound 53] | 55 nM | 606 nM
CC(C)Oc1ccccc1N1CCN(CC(O)CNC(=O)c2ccc3c(c2)C(=O)N(c2cccc(C(F)(F)F)c2)C3=O)CC1 (centres unmarked) [Compound 57] | 89 nM | > 2000 nM

The remaining compounds from weak to strong by IC50 (α1d-AR), led by results:

IC50 (α1d-AR) | IC50 (α1b-AR) | SMILES
407 nM | > 2000 nM | COC(CNC(=O)c1ccc2c(c1)C(=O)N(c1cccc(F)c1)C2=O)CN1CCN(c2ccccc2OC(C)C)CC1 (centres unmarked) [Compound 14]
190 nM | > 2000 nM | CC(C)Oc1ccccc1N1CCN(C[C@@H](O)CNC(=O)c2ccc3c(c2)C(=O)N(c2cccc(F)c2)C3=O)CC1 [Compound 9]
111 nM | > 2000 nM | CC(C)Oc1ccccc1N1CCN(CC(O)CNC(=O)c2ccc3c(c2)C(=O)N(c2ccc(F)cc2)C3=O)CC1 (centres unmarked) [Compound 50]
73 nM | > 2000 nM | Cc1cccc(N2C(=O)c3ccc(C(=O)NCC(O)CN4CCN(c5ccccc5OC(C)C)CC4)cc3C2=O)c1 (centres unmarked) [Compound 49]
62 nM | > 2000 nM | Cc1ccc(N2C(=O)c3ccc(C(=O)NCC(O)CN4CCN(c5ccccc5OC(C)C)CC4)cc3C2=O)cc1 (centres unmarked) [Compound 52]
60 nM | > 2000 nM | CC(=O)c1ccc(N2C(=O)c3ccc(C(=O)NCC(O)CN4CCN(c5ccccc5OC(C)C)CC4)cc3C2=O)cc1 (centres unmarked) [Compound 48]
44 nM | > 2000 nM | CC(C)Oc1ccccc1N1CCN(CC(O)CNC(=O)c2ccc3c(c2)C(=O)N(c2ccc(N(C)C)cc2)C3=O)CC1 (centres unmarked) [Compound 28]
40 nM | 1230 nM | CC(C)Oc1ccccc1N1CCN(CC(O)CNC(=O)c2ccc3c(c2)C(=O)N(c2ccc(Cl)c(Cl)c2)C3=O)CC1 (centres unmarked) [Compound 56]
38 nM | > 2000 nM | CC(C)Oc1ccccc1N1CCN(CC(O)CNC(=O)c2ccc3c(c2)C(=O)N(c2ccc([N+](=O)[O-])cc2)C3=O)CC1 (centres unmarked) [Compound 30]
37 nM | > 2000 nM | Cc1ccc(N2C(=O)c3ccc(C(=O)NCCCN4CCN(c5ccccc5OC(C)C)CC4)cc3C2=O)cc1 [Compound 46]
37 nM | 669 nM | CC(C)Oc1ccccc1N1CCN(CC(O)CNC(=O)c2ccc3c(c2)C(=O)N(c2cccc(Cl)c2)C3=O)CC1 (centres unmarked) [Compound 54]
31 nM | > 2000 nM | CC(C)Oc1ccccc1N1CCN(CC(O)CNC(=O)c2ccc3c(c2)C(=O)N(c2cccnc2)C3=O)CC1 (centres unmarked) [Compound 11]
28 nM | > 2000 nM | CC(C)Oc1ccccc1N1CCN(CC(O)CNC(=O)c2ccc3c(c2)C(=O)N(c2ccc(O)cc2)C3=O)CC1 (centres unmarked) [Compound 58]
22 nM | 482 nM | CC(C)Oc1ccccc1N1CCN(CCCNC(=O)c2ccc3c(c2)C(=O)N(c2cccc(F)c2)C3=O)CC1 [Compound 6]
16 nM | 361 nM | COc1ccc(N2C(=O)c3ccc(C(=O)NCCCN4CCN(c5ccccc5OC(C)C)CC4)cc3C2=O)cc1 [Compound 45]
13 nM | 255 nM | CC(C)Oc1ccccc1N1CCN(CCCNC(=O)c2ccc3c(c2)C(=O)N(c2ccc(O)cc2)C3=O)CC1 [Compound 47]
